From patent US20230405008A1, “TREATMENT OF HEMATOLOGICAL MALIGNANCIES WITH INHIBITORS OF MENIN” (Kura Oncology, Inc., priority 2020, published 2023) come the findings set out here.

Where only a bound is given, the exact number is not on record here.

In this assay the target is T1, menin-MLL interaction (Homo sapiens, UniProt O00255).
T1 sequence (O00255 1-610): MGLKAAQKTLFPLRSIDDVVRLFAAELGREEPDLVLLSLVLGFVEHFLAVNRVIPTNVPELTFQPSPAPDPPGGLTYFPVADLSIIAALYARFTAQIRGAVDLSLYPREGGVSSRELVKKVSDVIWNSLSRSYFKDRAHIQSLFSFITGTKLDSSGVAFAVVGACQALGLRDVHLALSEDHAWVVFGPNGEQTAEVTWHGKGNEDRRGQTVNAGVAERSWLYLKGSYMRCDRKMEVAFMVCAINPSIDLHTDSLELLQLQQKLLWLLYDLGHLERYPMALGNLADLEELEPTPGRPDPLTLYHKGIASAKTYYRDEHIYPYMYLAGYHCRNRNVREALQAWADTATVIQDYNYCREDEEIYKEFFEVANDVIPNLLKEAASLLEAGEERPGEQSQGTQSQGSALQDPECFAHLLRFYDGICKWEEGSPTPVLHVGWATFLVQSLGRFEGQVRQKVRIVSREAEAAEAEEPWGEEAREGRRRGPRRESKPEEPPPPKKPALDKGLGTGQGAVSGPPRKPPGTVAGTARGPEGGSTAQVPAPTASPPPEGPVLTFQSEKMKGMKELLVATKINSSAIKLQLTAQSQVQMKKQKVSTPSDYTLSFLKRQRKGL
In words: Fluorescence polarization (FP) competition assay. Particulars: menin / MLL 4-43 peptide. The class given is binding. For orientation: Polarisation of emitted light reports the rotation of a fluorescent probe.
As to `Cc1c(CN2CCC(Nc3ncnc4sc(CC(F)(F)F)cc34)CC2)ccc2c1cc(C#N)n2CCN1CCN(S(C)(=O)=O)CC1C` (stereo not shown) [Compound I-45], the IC50 (commonly the concentration needed to halve the response being measured) fell in the range of 250 to 1000 nM.
As for `CCS(=O)(=O)NC12CC(Cn3c(C#N)cc4c(C)c(CN5CCC(Nc6ncnc7sc(CC(F)(F)F)cc67)CC5)ccc43)(C1)C2` [II-4], the IC50 fell in the range of 250 to 1000 nM.
With `Cc1nc(NC2CCN(Cc3ccc4c(cc(C#N)n4C[C@@H](C)N4CCN(S(C)(=O)=O)CC4)c3C)CC2)c2cc(CC(F)(F)F)sc2n1` [Compound I-201], the IC50 is 250 to 1000 nM.
Molecule `CNc1nc(NC2CCN(Cc3ccc4c(cc(C#N)n4C[C@H](C)N4CCN(S(=O)(=O)NC)CC4)c3C)CC2)c2cc(CC(F)(F)F)sc2n1` [Compound I-185] had an IC50 of 50 to 250 nM.
On to `Cc1c(CN2CCC(Nc3nc(C4CC4)nc4sc(CC(F)(F)F)cc34)CC2)ccc2c1cc(C#N)n2C[C@H](C)N1CCN(S(C)(=O)=O)CC1` [Compound I-173], for which the IC50 was in the range of 250 to 1000 nM.
The value for `Cc1c(CN2CCC(Nc3ncnc4sc(CC(F)(F)F)cc34)CC2)ccc2c1cc(C#N)n2CCC1CCN(S(C)(=O)=O)C(C)C1` (stereo not shown) [Compound I-59] was 250 to 1000 nM; that for `Cc1c(CN2CCC(Nc3ncnc4sc(CC(F)(F)F)cc34)CC2)ccc2c1cc(C#N)n2CCN1CCN(C2CCN(S(C)(=O)=O)C2)CC1` (stereo not shown) [Compound I-52] was 250 to 1000 nM; that for `Cc1c(CN2CCC(Nc3ncnc4sc(CC(F)(F)F)cc34)CC2)ccc2c1cc(C#N)n2CC(C)N1CCC(NS(C)(=O)=O)C1` (stereo not shown) [Compound I-162] was 50 to 250 nM.
In turn, `Cc1c(CN2CCC3(CCN(c4ncnc5sc(CC(F)(F)F)cc45)C3)C2)ccc2[nH]c(C#N)cc12` (stereo not shown) [III-30a] returned an IC50 of 50 to 250 nM.
The same measure for `Cc1c(CN2CCC(Nc3ncnc4sc(CC(F)(F)F)cc34)CC2)ccc2c1cc(C#N)n2CCN1CC2CN(S(C)(=O)=O)CC2C1` (stereo not shown) [Compound I-55]: 250 to 1000 nM; for `Cc1c(CN2CCC(Nc3ncnc4sc(CC(F)(F)F)cc34)CC2)ccc2c1cc(C#N)n2CCN1CCC2(CC1)CC(S(C)(=O)=O)C2` [Compound I-54]: 50 to 250 nM; for `COc1nc(NC2CCN(Cc3ccc4c(cc(C#N)n4C[C@H](C)N4CCC(S(C)(=O)=O)CC4)c3C)CC2)c2cc(CC(F)(F)F)sc2n1` [Compound I-218]: less than 50 nM.
As to `Cc1c(CN2CCC(Nc3ncnc4sc(CC(F)(F)F)cc34)CC2)ccc2c1cc(C#N)n2CCN1CC2(CCN(S(C)(=O)=O)C2)C1` [Compound I-58], the IC50 fell in the range of 250 to 1000 nM.
With `Cc1c(CN2CCC(Nc3ncnc4sc(CC(F)(F)F)cc34)CC2)ccc2c1cc(C#N)n2C[C@H](C)N1CCC(NP(C)(C)=O)CC1` [Compound I-157], the half-inhibitory concentration (IC50) lay within 250 to 1000 nM.
Take `CS(=O)(=O)Nc1ccc(CN2CCC3(CCN(c4ncnc5sc(CC(F)(F)F)cc45)C3)C2)cc1` (stereo not shown) [III-38]: the IC50 is 50 to 250 nM.
The same measure for `Cc1c(CN2CCC(Nc3ncnc4sc(CC(F)(F)F)cc34)CC2)ccc2c1cc(C#N)n2CC(C)N1CCN(S(C)(=O)=O)C(C(=O)O)C1` (stereo not shown) [Compound I-82]: 250 to 1000 nM; for `CNS(=O)(=O)N1CCN(C(C)Cn2c(C#N)cc3c(C)c(CN4CCC(Nc5ncnc6sc(CC(F)(F)F)cc56)CC4)ccc32)CC1` (stereo not shown) [Compound I-128]: 50 to 250 nM; for `CNc1nc(NC2CCN(Cc3ccc4c(cc(C#N)n4CCN4CCN(S(C)(=O)=O)[C@H](C#N)C4)c3C)CC2)c2cc(CC(F)(F)F)sc2n1` [Compound I-209]: less than 50 nM.
The value for `CS(=O)(=O)N[C@H]1CC[C@H](CN2CCC3(CCN(c4ncnc5sc(CC(F)(F)F)cc45)C3)C2)CC1` (stereo partly shown) [III-48] was 250 to 1000 nM.
The same measure for `Cc1c(CN2CCC(Nc3ncnc4sc(CC(F)(F)F)cc34)CC2)ccc2c1cc(C#N)n2CCN1CC2(C1)CN(S(C)(=O)=O)C2` [Compound I-57]: 250 to 1000 nM; for `Cc1c(CN2CCC(Nc3ncnc4sc(CC(F)(F)F)cc34)CC2)ccc2c1cc(C#N)n2CC(C)C1CCN(S(C)(=O)=O)CC1` (stereo not shown) [Compound I-3]: 250 to 1000 nM.
`Cc1c(CN2CCC(Nc3ncnc4sc(CC(F)(F)F)cc34)CC2)ccc2c1cc(C#N)n2CCN1CCC2(CCN(S(C)(=O)=O)C2)C1` (stereo not shown) [Compound I-53] came in with a half-maximal inhibitory concentration (IC50) of 250 to 1000 nM.
The value for `CNS(=O)(=O)N1CCN([C@H](C)Cn2c(C#N)cc3c(C)c(CN4CCC(Nc5ncnc6sc(CC(F)(F)F)cc56)CC4)ccc32)CC1` [Compound I-66] was 250 to 1000 nM.
In turn, `C=CC(=O)Nc1ccc(C(Cn2c(C#N)cc3c(C)c(CN4CCC(Nc5ncnc6sc(CC(F)(F)F)cc56)CC4)ccc32)OC)cc1` (stereo not shown) [Compound I-1] showed an IC50 of 250 to 1000 nM.
Molecule `Cc1c(CN2CCC(Nc3ncnc4sc(CC(F)(F)F)cc34)CC2)ccc2c1cc(C#N)n2CCN1CC(C)N(S(C)(=O)=O)CC1C` (stereo not shown) [Compound I-44] gave an IC50 of 250 to 1000 nM.
`Cc1c(CN2CCC(Nc3ncnc4sc(CC(F)(F)F)cc34)CC2)ccc2c1cc(C#N)n2CC12CC(NC(=O)C3CCCC(=O)N3)(C1)C2` (stereo not shown) [II-35]: the 50% inhibitory concentration (IC50) was less than 50 nM.
The value for `Cc1c(CN2CCC(Nc3ncnc4sc(CC(F)(F)F)cc34)CC2)ccc2c1cc(C#N)n2C[C@@H](C)N1CCN(C=O)CC1` [Compound I-67] was 250 to 1000 nM; that for `CC[C@H]1CN(C(C)Cn2c(C#N)cc3c(C)c(CN4CCC(Nc5ncnc6sc(CC(F)(F)F)cc56)CC4)ccc32)CCN1S(C)(=O)=O` (stereo partly shown) [Compound I-26] was 250 to 1000 nM; that for `Cc1c(CN2CCC(Nc3ncnc4sc(CC(F)(F)F)cc34)CC2)ccc2c1cc(C#N)n2CC(C(C)C)N1CCN(S(C)(=O)=O)CC1` (stereo not shown) [Compound I-24] was 250 to 1000 nM.
The value for `Cc1c(CN2CCC(Nc3ncnc4sc(CC(F)(F)F)cc34)CC2)ccc2c1cc(C#N)n2C[C@H](C)N1CCN(C(=O)C(F)(F)F)CC1` [Compound I-118] was 250 to 1000 nM; that for `Cc1c(CN2CCC(Nc3ncnc4sc(CC(F)(F)F)cc34)CC2)ccc2c1cc(C#N)n2CCN1CC2(CCN(S(C)(=O)=O)CC2)C1` [Compound I-56] was 250 to 1000 nM.
